Legend:
DNA synthesis = experiment: BrdU analysis (DNA synthesis inhibition); type: cell-based
Description: Three different incubation periods were selected for the experiment, which was carried out according to the kit procedure. (BioVision, BrdU Cell Proliferation Assay Kit (Fluorometric)). Test results performed at 24-hour, 48-hour, and 72-hour periods were based on fluorimetric measurement of the color change caused by the addition of the stop solution. It enables us to find out where the anticancer effect of anticancer compounds originates from. In other words, the following question persists: by affecting which phase in the cell cycle is DNA synthesis inhibited? BrdU analysis is important to find the answer to this question.
With the Brdu studies, the potential of compound 4d to inhibit DNA synthesis was examined in 24-, 48- and 72-hour periods. […] Since DNA synthesis occurs in the […] of the cell cycle, it would be a correct approach to say that the compounds affect the G2 phase.

[1] = tested on: NIH3T3 (normal fibroblast cell); experiment: MTT cytotoxicity assay, NIH3T3 healthy cell line; type: cell-based; conditions: Mus musculus, 24-hour MTT, read-out: IC50 against NIH3T3
Description: (§1) Cytotoxicity studies were carried out using the MTT method, based on the principle of forming purple formazan salt. The MTT procedure was performed using a CO2 incubator during a 24-hour incubation period, as described in our previous publications. The results were detected with a microplate reader.
(§2) For activity studies, the 24-hour MTT procedure was applied. A549 (Lung cancer cell) (ATCC-CRM-CCL-185), MCF-7 (breast cancer cell) (ATCC-HTB-22), and NIH3T3 (normal fibroblast cell) (ATCC-CRL-1658) were used. Looking at the activity results, compound 4d is promising. […] The value shown against the MCF-7 cell line is especially important. Therefore, compound 4d was subjected to the aromatase enzyme inhibition test in vitro. When the structure of compound 4d was examined, unlike other compounds, it carried a nitro substitution in the fourth position of the phenyl ring.

[2] = tested on: MCF-7 (breast cancer cell); experiment: MTT cytotoxicity assay, MCF-7; type: cell-based; conditions: Homo sapiens, MCF7; 24-hour MTT, MCF-7 cell line; read-out: IC50 against MCF-7
Description: as §1, §2

Aromatase (CYP19A) = target: T1, Aromatase (CYP19A) (Homo sapiens, UniProt P11511); experiment: Aromatase (CYP19A) inhibitor screening kit (fluorometric); type: biochemical; conditions: read-out: IC50 aromatase enzyme inhibition
T1 construct: purchased BioVision
T1 sequence (P11511 1-503): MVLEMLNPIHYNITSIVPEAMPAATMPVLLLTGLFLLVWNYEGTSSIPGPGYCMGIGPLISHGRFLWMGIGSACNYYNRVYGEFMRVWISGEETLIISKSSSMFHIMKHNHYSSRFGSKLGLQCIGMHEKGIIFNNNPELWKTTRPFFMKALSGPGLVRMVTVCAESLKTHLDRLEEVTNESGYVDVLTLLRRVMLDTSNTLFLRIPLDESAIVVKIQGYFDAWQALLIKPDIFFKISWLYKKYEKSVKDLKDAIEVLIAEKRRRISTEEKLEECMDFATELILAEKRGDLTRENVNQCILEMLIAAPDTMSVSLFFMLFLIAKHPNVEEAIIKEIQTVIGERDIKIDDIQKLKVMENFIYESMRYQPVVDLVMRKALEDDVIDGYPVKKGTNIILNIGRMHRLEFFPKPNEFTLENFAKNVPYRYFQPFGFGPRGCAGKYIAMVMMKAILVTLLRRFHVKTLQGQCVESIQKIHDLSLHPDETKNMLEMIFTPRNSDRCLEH
Description: In the experiment performed according to the kit procedure, IC50 values of the compound were calculated from the results obtained with the help of a microplate reader (BioVision, Aromatase (CYP19A) Inhibitor Screening Kit (Fluorometric)).

A549 (Lung cancer cell) = experiment: MTT cytotoxicity assay, A549; type: cell-based; conditions: Homo sapiens; 24-hour MTT, A549 cell line; read-out: IC50 against A549
Description: as §1, §2

SMILES	DNA synthesis inhibition (DNA synthesis; 24-hour incubation, 2xIC50 dose)	DNA synthesis inhibition (DNA synthesis; 24-hour incubation, IC50/2 dose)	DNA synthesis inhibition (DNA synthesis; 24-hour incubation, IC50 dose)	DNA synthesis inhibition (DNA synthesis; 48-hour incubation, 2xIC50 dose)	DNA synthesis inhibition (DNA synthesis; 48-hour incubation, IC50/2 dose)	DNA synthesis inhibition (DNA synthesis; 48-hour incubation, IC50 dose)	DNA synthesis inhibition (DNA synthesis; 72-hour incubation, 2xIC50 dose)	DNA synthesis inhibition (DNA synthesis; 72-hour incubation, IC50/2 dose)	DNA synthesis inhibition (DNA synthesis; 72-hour incubation, IC50 dose)	IC50 [1]	IC50 [2]	IC50 (Aromatase (CYP19A))	IC50 (A549 (Lung cancer cell))
CCn1c(SCC(=O)c2ccc([N+](=O)[O-])cc2)nnc1-c1nc[nH]c1C [Compound 4d, 2-((4-ethyl-5-(5-methyl-1H-imidazol-4-yl)-4H-1,2,4-triazol-3-yl)thio)-1-(4-nitrophenyl) ethan-1-one]	63.3%	16.1%	28.1%	79.0%	40.4%	77.5%	92.4%	77.8%	80.6%	13.2 µM	6.73 µM	0.097 µM	17.2 µM
CCn1c(SCC(=O)c2ccc(C)cc2C)nnc1-c1[nH]cnc1C [Compound 4h]										27.2 µM	> 100 µM		17.2 µM
CCn1c(SCC(=O)c2ccc(F)cc2F)nnc1-c1[nH]cnc1C [Compound 4i]										27.2 µM	64.4 µM		86.2 µM
CCn1c(SCC(=O)c2ccc(Cl)cc2Cl)nnc1-c1[nH]cnc1C [Compound 4j]										18.4 µM	28.9 µM		66.1 µM

From article PMC12606616, “Synthesis, Characterization, and In Vitro and In Silico Studies of New Triazole Derivatives as Aromatase Inhibitors” (Medicinal Chemistry (Shariqah (United Arab Emirates), 2024)
